For 16 molecules, inhibition and inhibition in vivo results are on record in ChEMBL document CHEMBL1255537, “Design, synthesis and docking studies on phenoxy-3-piperazin-1-yl-propan-2-ol derivatives as protein tyrosine phosphatase 1B inhibitors” (2010).

Assay [1] deals with T1, Tyrosine-protein phosphatase non-receptor type 1 (Homo sapiens) (UniProt P18031).
T1 sequence (whole entry): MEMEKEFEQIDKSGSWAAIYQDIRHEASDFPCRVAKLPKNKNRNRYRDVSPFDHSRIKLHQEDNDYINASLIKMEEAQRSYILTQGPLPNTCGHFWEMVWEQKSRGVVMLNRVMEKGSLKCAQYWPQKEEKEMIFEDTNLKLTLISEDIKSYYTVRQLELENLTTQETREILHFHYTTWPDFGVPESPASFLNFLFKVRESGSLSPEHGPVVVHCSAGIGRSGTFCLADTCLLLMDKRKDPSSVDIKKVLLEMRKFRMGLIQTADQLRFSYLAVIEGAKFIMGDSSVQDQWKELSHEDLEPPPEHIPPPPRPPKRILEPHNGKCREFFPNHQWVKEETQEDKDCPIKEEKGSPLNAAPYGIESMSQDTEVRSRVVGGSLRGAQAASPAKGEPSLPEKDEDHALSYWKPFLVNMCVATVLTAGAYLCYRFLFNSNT
Kind of assay: Inhibition of PTP1B assessed as p-nitrophenolate ions release at 100 uM.

The subject of assay [2] is Rattus norvegicus. Briefly: Antihyperglycemic activity in rat sucrose loaded model assessed as reduction of blood glucose level at 100 mg/kg, po. The class given is functional.
Assay [3] relates to Rattus norvegicus. Kind of assay: Antihyperglycemic activity in rat streptozotocin-induced diabetic model assessed as reduction of blood glucose level at 100 mg/kg, po after 5 hrs. The class given is functional.
The subject of assay [4] is Rattus norvegicus. Kind of assay: Antihyperglycemic activity in rat streptozotocin-induced diabetic model assessed as reduction of blood glucose level at 100 mg/kg, po after 24 hrs. Type of assay: functional.

The inhibition is the share of the control response that was lost under treatment. By inhibition in vivo is commonly meant how much of the control response was suppressed. For `O=[N+]([O-])c1ccc(N2CCN(CC(O)COc3ccc(F)cc3)CC2)cc1` (stereo unspecified), the inhibition in assay [1] was 24%. Moreover, the inhibition in vivo at 100 mg/kg amounted to 40.2% in assay [2], 14.4% in assay [3] and 10.8% in assay [4].

As for `N#Cc1ccc(OCC(O)CN2CCN(c3ccccc3)CC2)cc1` (stereo unspecified), the inhibition in assay [1] worked out at 4.6%. Moreover, in assay [2], the inhibition in vivo at 100 mg/kg amounted to 56.7%.

As to `OC(COc1ccc(Cl)cc1)CN1CCN(c2ccc(Cl)c(Cl)c2)CC1` (stereo unspecified), the inhibition in assay [1] was determined as 24.6%. Besides, the inhibition in vivo at 100 mg/kg in assay [2] turned out to be 3.52%.

Consider `CN(C)C(=N)NC(=N)N` [METFORMIN], for which the inhibition in vivo at 100 mg/kg in assay [2] stood at 42%; in assay [3] it was 28%; in assay [4] it was 29.8%.

Consider `Cc1ccc(N2CCN(CC(O)COc3ccc(C#N)cc3)CC2C)cc1` (stereo unspecified), for which the inhibition in assay [1] amounted to 31.6%. In addition, the values for the inhibition in vivo at 100 mg/kg in assay [2], in assay [3] and in assay [4] were 40.3%, 26.8% and 32%, respectively.

Take `COc1ccccc1N1CCN(CC(O)COc2ccc(C#N)cc2)CC1` (stereo unspecified): the inhibition in assay [1] amounted to 2.6%. Further, the inhibition in vivo at 100 mg/kg in assay [2] stood at 33.5%.

`N#Cc1ccc(OCC(O)CN2CCN(Cc3ccc4c(c3)OCO4)CC2)cc1` (stereo unspecified): in assay [1], the inhibition came out at 0.5%. The inhibition in vivo at 100 mg/kg in assay [2] came out at 14%.

As for `N#Cc1ccc(OCC(O)CN2CCN(c3cccc(Cl)c3)CC2)cc1` (stereo unspecified), in assay [1], the inhibition worked out at 1.5%. Besides, in assay [2], the inhibition in vivo at 100 mg/kg was 16.5%.

Regarding `N#Cc1ccc(OCC(O)CN2CCN(c3ccc(F)cc3)CC2)cc1` (stereo unspecified), the inhibition in assay [1] came to 3.6%. Besides, the inhibition in vivo at 100 mg/kg in assay [2] was 38.6%.

For `O=[N+]([O-])c1ccc(N2CCN(CC(O)COc3ccc(Cl)cc3)CC2)cc1` (stereo unspecified), in assay [1], the inhibition is 35.9%. The inhibition in vivo at 100 mg/kg is 24.8% in assay [2], 18.9% in assay [3] and 13.6% in assay [4].

In the case of `N#Cc1ccc(OCC(O)CN2CCN(c3ccccn3)CC2)cc1` (stereo unspecified), the inhibition in assay [1] turned out to be 1.8%. The inhibition in vivo at 100 mg/kg in assay [2] was 39.6%.

For the molecule `N#Cc1ccc(OCC(O)CN2CCN(Cc3ccccc3)CC2)cc1` (stereo unspecified), the inhibition in assay [1] is 5.1%. For the same molecule, the inhibition in vivo at 100 mg/kg is 39.6% in assay [2], 25.3% in assay [3] and 14.7% in assay [4].

As for `CN1CCN(CC(O)COc2ccc(Cl)cc2)CC1` (stereo unspecified), in assay [1], the inhibition was 2.4%. In addition, in assay [2], the inhibition in vivo at 100 mg/kg stood at 2.61%.

Turning to `N#Cc1ccc(OCC(O)CN2CCN(c3cccc(C(F)(F)F)c3)CC2)cc1` (stereo unspecified), the inhibition in assay [1] was determined as 18.8%. The inhibition in vivo at 100 mg/kg in assay [2] stood at 49.7%.

`OC(COc1ccc(Cl)cc1)CN1CCN(C/C=C/c2ccccc2)CC1` (stereo unspecified): the inhibition in assay [1] is 7.63%. The inhibition in vivo at 100 mg/kg in assay [2] is 14.6%.

Turning to `COc1ccc(N2CCN(CC(O)COc3ccc(Cl)cc3)CC2)cc1` (stereo unspecified), in assay [1], the inhibition turned out to be 9.21%. The inhibition in vivo at 100 mg/kg in assay [2] came to 4.6%.
